Source: PMC5949603, “Bridged bicyclic peptides as potential drug scaffolds: synthesis, structure, protein binding and stability” (Chemical Science, 2015)
Where a SMILES comes first, the peptide text is derived from it. Bridges are numbered along the chain shown (N, C = ends). [ ]: non-standard residue; d: D form.

Assays:
[1] = molecular target: T1, CALM1 (calmodulin) (Homo sapiens, UniProt P0DP23); test: Capture compound mass spectrometry (CCMS) proteome profiling in HeLa cell lysate; format: binding; parameters: endogenous in cells; host or cells: HeLa cell lysate; details: probe 5 μM, competitor 240 μM, enrichment >2-fold, triplicate
Experimental: Capture experiments were carried out in PCR strips according to the general CCMS procedure.[48] 400 μg of HeLa cell lysate at 10 μg μL^–1 was pipetted for each set in triplicate. To the competition samples, 240 μM of BBP-competitor was added as a final concentration and incubated for 30 min at 4 °C. Assay and competition samples were then incubated with BBP-capture compounds or BBP-scaffold controls at a final concentration of 5 μM for 1 hour at 4 °C on a rotating axis and irradiated for 10 min at 310 nm in a caproBox™ (caprotec bioanalytics GmbH) to promote covalent cross-linking. Streptavidin-coated magnetic beads (Invitrogen) were added to the samples and further rotated for 1 hour at 4 °C. The beads were collected using a caproMag (caprotec bioanalytics GmbH) and washed 4 times with washing buffer (caprotec bionanalytics GmbH) followed by 3 times washing with 80% acetonitrile and lastly resuspended in MS-grade water. For tryptic digestion, the magnetic beads were incubated with trypsin in 50 mM ammonium bicarbonate for 16 hours at 37 °C. The supernatant was recovered, evaporated and stored at –20 °C until mass spectrometry analysis.
Mass Spectrometry: Tryptic digests were analyzed by online nanoflow liquid chromatography tandem MS (LC-MSn) on an UltiMate 3000 RSLCnano System (Dionex, part of Thermo Fisher Scientific, Germany) coupled to a LTQ-Orbitrap Velos instrument (Thermo Fisher Scientific, Germany) through a Proxeon nanoelectrospray ion source (Proxeon, part of Thermo Fisher Scientific, Germany). For chromatographic separation samples were first loaded on a reversed phase (RP) precolumn (Acclaim PepMap100, 5 μm, 100 Å, 100 μm i.d. × 20 mm) and separated on a RP analytical column (Acclaim PepMap RSLC C18, 2 μm, 100 Å, 75 μm i.d. × 150 mm, Dionex, part of Thermo Fisher Scientific, Germany) performing a 96 min gradient (5–45 % acetonitrile, 0.1% formic acid). MS detection was performed in the data-dependent mode allowing to automatically switch between Orbitrap-MS and LTQ-MS/MS acquisition in a top 20 configuration at 60 K resolution for a full scan with subsequent collision induced dissociation (CID) fragmentation. Full scan MS spectra (from m/z 300–2000) were acquired in the Orbitrap analyzer after accumulation to a target value of 1 × 10^6 in the linear ion trap. The most intense ions (up to twenty, depending on signal intensity) with charge state ≥2 were sequentially isolated at a target value of 5000 and fragmented in the linear ion trap using low energy CID with normalized collision energy of 35%. […] All MS/MS data were analyzed using Andromeda implemented in MaxQuant.[33] […] The label free quantification option was selected with a maximal retention time window of 2 min for the alignment between LC-MS/MS runs.

[2] = Water solubility (stated in words); format: physicochemical
[3] = molecular target: T1, CALM1 (calmodulin); test: Isothermal titration calorimetry (ITC) with calmodulin; details: 50 μM calmodulin in water, 25 °C, pH 6.5, read-out: KD (binding affinity to calmodulin by isothermal titration calorimetry)
Experimental: ITC experiments were performed using a MicroCal ITC200 from GE Healthcare. 27c and 28c were dissolved in water to a concentration of 0.7 and 0.6 mM, respectively. Calmodulin was dissolved in water at 50 μM. Optionally CaCl2 (final concentration 500 μM) or EDTA (final concentration 1 mM) were added. The peptide solution was injected into the calmodulin solution (2.5 μL of peptide per injection at an interval of 180 s, a total of 15 injections into the cell volume of 200 μL, with stirring speed of 800 rpm, at 25 °C). […] The experimental data were fitted to a theoretical titration curve (“one set of sites” model) using software supplied by Microcal, with n (number of binding sites per monomer), ΔH (binding enthalpy, kcal mol^–1) and Ka (association constant, M^–1), as adjustable parameters. Thermodynamic parameters were calculated from the Gibbs free energy equation, ΔG = ΔH – TΔS = –RT ln Ka, where ΔG, ΔH, and ΔS are the changes in free energy, enthalpy, and entropy of binding, respectively. T is the absolute temperature, and R = 1.98 cal mol^–1 K^–1.

[4] = molecular target: T2, Human calmodulin (CALM1) (Homo sapiens, UniProt P0DP23); test: MicroScale Thermophoresis (MST) binding to fluorescently labeled calmodulin; details: 10 nM labeled calmodulin, 25 °C
T2 construct: purchased Enzo Life Sciences, Lausen, Switzerland
Experimental: Human calmodulin (Enzo Life Sciences, Lausen, Switzerland) was labeled using the RED-NHS Labeling kit (NanoTemper Technologies). The labeling reaction was performed according to the manufacturer's instructions in the supplied labeling buffer applying a concentration of 20 μM protein (molar dye : protein ratio ≈ 2 : 1) at RT for 30 min. Unreacted dye was removed with the supplied dye removal columns equilibrated with MST buffer (50 mM TrisHCl pH 7.5, 150 mM NaCl, 10 mM MgCl2). The label : protein ratio was determined using photometry at 650 and 280 nm. Thereby, a ratio of 0.8 was typically achieved. The labeled calmodulin was adjusted to 20 nM with MST buffer. […]
For thermophoresis, each ligand dilution was mixed with one volume of labeled calmodulin, which leads to a final concentration of fluorescently labeled calmodulin of 10 nM and final ligand concentrations ranging from 15.3 nM to 250 μM. […] Thermophoresis was measured using a Monolith NT.115 instrument (NanoTemper Technologies GmbH) at an ambient temperature of 25 °C with 5 s/30 s/5 s laser off/on/off times, respectively. […] Data of three independently pipetted measurements were analyzed (NT.Analysis software version 1.5.41, NanoTemper Technologies) using the signal from Thermophoresis + T-Jump. […]

[5] = Human serum stability assay; format: in vitro ADME; details: 24 h, 37 °C, 200 μM peptide
Experimental: Human serum was diluted 1 : 4 in DMEM. Selected peptide was diluted in TRIS buffer to a concentration of 400 μM. Aliquots of peptide solution (50 μL) were added to aliquots of serum (50 μL) in sterile Eppendorf tubes, to reach a peptide concentration of 200 μM during the assay. Samples were incubated at 37 celsius degree under gentle stirring (350 rpm). Different samples (triplicate) were quenched at different time points (0/1/3/6/24 h) by precipitating serum proteins through the addition of ZnSO4·7H2O (0.1 M, 100 μL) and cooling down in ice bath. Protein precipitates were pelleted under centrifugation and the supernatants were sampled and evaporated to dryness in a centrifugal evaporator. Samples were resuspended in a H2O/ACN (4 : 1) mixture and centrifuged again to remove residual protein precipitate. Supernatants were then sampled and analysed by LC-MS. Experiment controls included a precipitation control for each peptide, to test their resistance to the protein precipitation conditions, and serum blanks, to check reproducibility over different serum batches. Two peaks originating from DMEM, surviving the incubation in serum and the protein precipitation conditions were used as internal standard.

K^2E^1Kwz^2WK^1GFGGK(biot) [27s]
CALM1 (calmodulin) identified as target by CCMS [1]: specifically targeted

CC(C)C[C@H]1NC(=O)CC[C@@H]2NC(=O)[C@@H]3CCCN3C(=O)[C@@H](Cc3ccccc3)NC(=O)[C@@H](CCCCNC(=O)[C@@H](C)NC2=O)NC(=O)CNC1=O [compound 1, l^1Gk^2fPE^1a^2] ([dL]G[dK][dF]PE[dA]; lactam 3-C, N-6)
Water solubility [2]: water insoluble

R^2E^1Rfz^2FK^1GBGGK(biot) [28x]
CALM1 (calmodulin) identified as target by CCMS [1]: did not indicate this target

R^2E^1Rfz^2FK^1GFGGK(biot) [28s]
CALM1 (calmodulin) identified as target by CCMS [1]: did not indicate this target

K^2E^1Kwz^2WK^1GBGGK(biot) [27x]
CALM1 (calmodulin) identified as target by CCMS [1]: specifically targeted

NCCCC[C@@H]1NC(=O)CSC[C@H]2NC(=O)[C@@H](Cc3c[nH]c4ccccc34)NC(=O)[C@H](CCCCN)NC(=O)[C@H](CCC(=O)NCCCC[C@@H](C(=O)NCC(N)=O)NC(=O)[C@H](Cc3c[nH]c4ccccc34)NC2=O)NC1=O [27c, K^2E^1Kwz^2WK^1G] ({CH2CO}-KEK[dW][dC]WKG-NH2; lactam 2-7; thioether N-5)
Kd [3]: 0.8 ± 0.05 µM
Kd ([4]; MST buffer pH 7.5, read-out: KD (binding affinity to calmodulin by microscale thermophoresis)): 4.5 ± 1.1 µM
Stability upon incubation in human serum [5]: entirely stable

CC(C)C[C@@H]1NC(=O)CC[C@@H]2NC(=O)[C@@H]3CCCN3C(=O)[C@@H](Cc3ccc(O)cc3)NC(=O)[C@@H](CCCCNC(=O)[C@H](C)NC2=O)NC(=O)CNC1=O [compound 15, L^1Gk^2yPE^1A^2] (LG[dK][dY]PEA; lactam 3-C, N-6)
Stability upon incubation in human serum [5]: stable

N=C(N)NCCC[C@@H]1NC(=O)CSC[C@H]2NC(=O)[C@@H](Cc3ccccc3)NC(=O)[C@H](CCCNC(=N)N)NC(=O)[C@H](CCC(=O)NCCCC[C@@H](C(=O)NCC(N)=O)NC(=O)[C@H](Cc3ccccc3)NC2=O)NC1=O [28c, R^2E^1Rfz^2FK^1G] ({CH2CO}-RER[dF][dC]FKG-NH2; lactam 2-7; thioether N-5)
Kd [3]: 6.8 ± 0.6 µM
KD (binding affinity to calmodulin by microscale thermophoresis) ([4]; MST buffer pH 7.5): no measurable affinity
